Target: T1, Recombinant human renin (Homo sapiens, UniProt P00797)
T1 construct: isolate the active form (residues 67-406); made in house; host or cells: FreeStyle 293-F cells (transient expression of pcDNA3.1(+)/hREN)
T1 sequence (P00797 67-406): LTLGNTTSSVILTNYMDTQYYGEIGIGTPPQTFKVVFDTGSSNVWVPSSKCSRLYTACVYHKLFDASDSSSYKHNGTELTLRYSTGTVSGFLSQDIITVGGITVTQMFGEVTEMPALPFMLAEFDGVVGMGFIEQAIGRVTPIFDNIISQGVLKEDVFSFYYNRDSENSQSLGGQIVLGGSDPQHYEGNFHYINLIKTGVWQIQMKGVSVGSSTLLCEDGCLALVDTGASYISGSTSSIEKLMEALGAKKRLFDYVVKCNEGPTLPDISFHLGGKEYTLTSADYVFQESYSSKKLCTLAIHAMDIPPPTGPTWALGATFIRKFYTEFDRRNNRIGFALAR
Experiment: In vitro enzymatic activity assay of renin inhibitors (fluorogenic peptide substrate)
Format: biochemical
Settings: read-out: IC50 of Exemplified Compounds Against Renin
How it was run: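 Enzyme: recombinant human renin, 3 nM final, 10 min compound pre-incubation at 37 °C; buffer 50 mM Hepes pH 7.4 with 0.1 mg/mL BSA or extra 2% BSA; 5% DMSO.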

Structure (SMILES) | IC50
COCCCn1c([C@@H]2CCCN(C(=O)C[C@H](N)CNC(=O)c3cccnc3Oc3ccccc3)C2)nc2ccccc21 [Compound 299, N-((S)-2-amino-4-((R)-3-(1-(3-methoxypropyl)-1H-benzo[d]imidazol-2-yl)piperidin-1-yl)-4-oxobutyl)-2-phenoxynicotinamide] | 100 to 1000 nM
COCCCn1c([C@@H]2CCCN(C(=O)[C@@H]3CN(C(=O)N4CCOCC4)C[C@H]3N)C2)nc2ccccc21 [Compound 423, ((3R,4S)-4-amino-1-(morpholine-4-carbonyl)pyrrolidin-3-yl)((R)-3-(1-(3-methoxypropyl)-1H-benzo[d]imidazol-2-yl)piperidin-1-yl)methanone] | > 1000 nM
COCCCn1c([C@@H]2CCCN(C(=O)C[C@H](N)CNC(=O)c3ccc4ccccc4c3)C2)nc2ccccc21 [Compound 249, N-((S)-2-amino-4-((R)-3-(1-(3-methoxypropyl)-1H-benzo[d]imidazol-2-yl)piperidin-1-yl)-4-oxobutyl)-2-naphthamide] | < 100 nM
COCCCn1c([C@@H]2CCCN(C(=O)C[C@H](N)Cc3ccc(-c4ccc(OCC5CC5)nc4)cc3)C2)nc2ccccc21 [Compound 143, (R)-3-amino-4-(4-(6-(cyclopropylmethoxy)pyridin-3-yl)phenyl)-1-((R)-3-(1-(3-methoxypropyl)-1H-benzo[d]imidazol-2-yl)piperidin-1-yl)butan-1-one] | < 100 nM
COCCCn1c([C@@H]2CCCN(C(=O)C[C@H](N)Cc3ccc4ccccc4c3)C2)nc2ccc(OC)cc21 [Compound 110, (R)-3-amino-1((R)-3-(6-methoxy-1-(3-methoxypropyl)-1H-benzo[d]imidazol-2-yl)piperidin-1-yl)-4-(naphthalen-2-yl)butan-1-one] | 100 to 1000 nM
COCCCn1c([C@@H]2CCCN(C(=O)[C@@H]3CN(S(=O)(=O)c4cccc(Cl)c4Cl)C[C@H]3N)C2)nc2ccccc21 [Compound 363, ((3R,4S)-4-amino-1-(2,3-dichlorophenyisulfonyl)pyrrolidin-3-yl)((R)-3-(1-(3-methoxypropyl)-1H-benzo[d]imidazol-2-yl)piperidin-1-yl)methanone] | 100 to 1000 nM
COCCCn1c([C@@H]2CCCN(C(=O)C[C@H](N)CNC(=O)Nc3cccc(Oc4ccccc4)c3)C2)nc2ccccc21 [Compound 288, 1-((S)-2-amino-4-((R)-3-(1-(3-methoxypropyl)-1H-benzo[d]imidazol-2-yl)piperidin-1-yl)-4-oxobutyl)-3-(3-phenoxyphenyl)urea] | 100 to 1000 nM
COCCCn1c([C@@H]2CCCN(C(=O)C[C@H](N)CNC(=O)NCCc3cc(OC)ccc3OC)C2)nc2ccccc21 [Compound 322, 1-((S)-2-amino-4-((R)-3-(1-(3-methoxypropyl)-1H-benzo[d]imidazol-2-yl)piperidin-1-yl)-4-oxobutyl)-3-(2,5-dimethoxyphenethyl)urea] | 100 to 1000 nM
COCCCn1c([C@@H]2CCCN(C(=O)C[C@H](N)Cc3ccc(-c4ccccc4Cl)cc3)C2)nc2ccccc21 [Compound 155, (R)-3-amino-4-(2′-chlorobiphenyl-4-yl)-1-((R)-3-(1-(3-methoxypropyl)-1H-benzo[d]imidazol-2-yl)piperidin-1-yl)butan-1-one] | < 100 nM
COCCCn1c(C(C)(C)C)cnc1C1(O)CCCN(C(=O)C[C@H](N)Cc2ccc(-c3ccc(C(=O)OC)cc3)cc2)C1 (stereo partly drawn) [Compound 242, methyl 4′-((2R)-2-amino-4-(3-(5-tert-butyl-1-(3-methoxypropyl)-1H-imidazol-2-yl)-3-hydroxypiperidin-1-yl)-4-oxobutyl)biphenyl-4-carboxylate] | > 1000 nM
COCCCn1c([C@@H]2CCCN(C(=O)C[C@H](N)Cc3ccc(-c4csc(OC)n4)cc3)C2)nc2ccccc21 [Compound 201, (R)-3-amino-1-((R)-3-(1-(3-methoxypropyl)-1H-benzo[d]imidazol-2-yl)piperidin-1-yl)-4-(4-(2-methoxythiazol-4-yl)phenyl)butan-1-one] | < 100 nM
COCCCn1c([C@@H]2CCCN(C(=O)C[C@H](N)Cc3ccc(-c4ccc(N5CCOCC5)cc4)cc3)C2)nc2ccccc21 [Compound 128, (R)-3-amino-1-((R)-3-(1-(3-methoxypropyl)-1H-benzo[d]imidazol-2-yl)piperidin-1-yl)-4-(4′-morpholinobiphenyl-4-yl)butan-1-one] | < 100 nM
CCOC(=O)c1ccc(-c2ccc(C(=O)NC[C@@H](N)CC(=O)N3CCC[C@@H](c4nc5ccccc5n4CCCOC)C3)o2)cc1 [Compound 294, ethyl 4-(5-((S)-2-amino-4-((R)-3-(1-(3-methoxypropyl)-1H-benzo[d]imidazol-2-yl)piperidin-1-yl)-4-oxobutylcarbamoyl)furan-2-yl)benzoate] | 100 to 1000 nM
COCCCn1c([C@@H]2CCCN(C(=O)C[C@H](N)Cc3ccc(-c4ccccc4C)cc3)C2)nc2ccccc21 [Compound 157, (R)-3-amino-1-((R)-3-(1-(3-methoxypropyl)-1H-benzo[d]imidazol-2-yl)piperidin-1-yl)-4-(2′-methylbiphenyl-4-yl)butan-1-one] | < 100 nM
COCCCn1c([C@@H]2CCCN(C(=O)C[C@H](N)Cc3ccc(-c4ccc5oc(=O)[nH]c5c4)cc3)C2)nc2c(F)cccc21 [Compound 460, 5-(4-((R)-2-amino-4-((R)-3-(4-fluoro-1-(3-methoxypropyl)-1H-benzo[d]imidazol-2-yl)piperidin-1-yl)-4-oxobutyl)phenyl)benzo[d]oxazol-2(3H)-one] | < 100 nM
COCCCn1c([C@@H]2CCCN(C(=O)[C@@H]3CN(S(=O)(=O)c4cccc(Oc5ccccc5)c4)C[C@H]3N)C2)nc2ccccc21 [Compound 368, ((3R,4S)-4-amino-1-(3-phenoxyphenylsulfonyl)pyrrolidin-3-y1)((R)-3-(1-(3-methoxypropyl)-1H-benzo[d]imidazol-2-yl)piperidin-1-yl)methanone] | 100 to 1000 nM
CCCSc1ncccc1C(=O)NC[C@@H](N)CC(=O)N1CCC[C@@H](c2nc3ccccc3n2CCCOC)C1 [Compound 307, N-((S)-2-amino-4-((R)-3-(1-(3-methoxypropyl)-1H-benzo[d]imidazol-2-yl)piperidin-1-yl)-4-oxobutyl)-2-(propylthio)nicotinamide] | 100 to 1000 nM
COCCCn1c([C@@H]2CCCN(C(=O)C[C@H](N)CNC(=O)c3ccc(-c4cccs4)cc3)C2)nc2ccccc21 [Compound 259, N-((S)-2-amino-4-((R)-3-(1-(3-methoxypropyl)-1H-benzo[d]imidazol-2-yl)piperidin-1-yl)-4-oxobutyl)-4-(thiophen-2-yl)benzamide] | < 100 nM
N[C@@H](Cc1ccccn1)C(=O)N1CCCC(c2nc3ccccc3[nH]2)C1 (stereo partly drawn) [Compound 62, (2S)-1-(3-(1H-benzo[d]imidazol-2-yl)piperidin-1-yl)-2-amino-3-(pyridin-2-yl)propan-1-one] | > 1000 nM
COCCCn1c([C@@H]2CCCN(C(=O)C[C@H](N)Cc3ccc(-c4ccc(N(C)C)nc4)cc3)C2)nc2ccccc21 [Compound 147, (R)-3-amino-4-(4-(6-(dimethylamino)pyridin-3-yl)phenyl)-1-((R)-3-(1-(3-methoxypropyl)-1H-benzo[d]imidazol-2-yl)piperidin-1-yl)butan-1-one] | < 100 nM
COCCCn1c([C@@H]2CCCN(C(=O)C[C@H](N)Cc3ccc(-n4ccnc4)cc3)C2)nc2ccccc21 [Compound 208, (R)-4-(4-(1H-imidazol-1-yl)phenyl)-3-amino-1-((R)-3-(1-(3-methoxypropyl)-1H-benzo[d]imidazol-2-yl)piperidin-1-yl)butan-1-one] | < 100 nM

From US8138168B1 (Takeda Pharmaceutical Company Limited, priority 2007, dated 2012)
